Reference: article PMC9516332 (Frontiers in Oncology, 2022)

Columns and labels:
Assay in all cases: Kinase panel profiling at 1 µmol/L (MSA or IMAP), percentage inhibition
Assay type in all cases: biochemical
[1] = target: panel of 255 wild-type kinases (Homo sapiens, UniProt P53350); details: kinase PLK1; 1 µmol/L single concentration; read-out: %-inhibition at 1 µmol/L, PLK1
[2] = system: panel of 255 wild-type kinases; details: for %-inhibition at 1 µmol/L, FYN [isoform b]: kinase FYN [isoform b]; for %-inhibition at 1 µmol/L, FYN [isoform b] / %-inhibition at 1 µmol/L, LYNb / %-inhibition at 1 µmol/L, PKCβ2 / %-inhibition at 1 µmol/L, SRM: 1 µmol/L single concentration; for %-inhibition at 1 µmol/L, LYNb: kinase LYNb; for %-inhibition at 1 µmol/L, PKCβ2: kinase PKCβ2; for %-inhibition at 1 µmol/L, SRM: kinase SRM
[3] = target: T1, panel of 255 wild-type kinases (Homo sapiens, UniProt Q96BR1); details: kinase SGK3; 1 µmol/L single concentration; read-out: %-inhibition at 1 µmol/L, SGK3
T1 sequence (Q96BR1 1-496): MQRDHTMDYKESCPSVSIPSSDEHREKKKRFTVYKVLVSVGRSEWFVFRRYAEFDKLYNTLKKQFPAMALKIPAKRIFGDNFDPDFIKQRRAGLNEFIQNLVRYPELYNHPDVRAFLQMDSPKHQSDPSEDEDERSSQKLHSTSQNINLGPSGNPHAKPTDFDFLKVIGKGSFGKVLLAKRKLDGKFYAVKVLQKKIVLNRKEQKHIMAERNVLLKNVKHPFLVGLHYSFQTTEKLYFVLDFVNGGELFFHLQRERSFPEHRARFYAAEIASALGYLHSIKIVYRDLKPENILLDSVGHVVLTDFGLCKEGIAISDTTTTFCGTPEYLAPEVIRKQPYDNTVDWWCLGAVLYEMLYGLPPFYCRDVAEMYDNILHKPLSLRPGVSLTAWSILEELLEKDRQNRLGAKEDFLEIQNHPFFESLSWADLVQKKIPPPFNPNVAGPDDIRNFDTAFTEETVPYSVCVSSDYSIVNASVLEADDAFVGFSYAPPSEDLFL

[4] = target: panel of 255 wild-type kinases (Homo sapiens, UniProt P45984); details: kinase JNK2; 1 µmol/L single concentration; read-out: %-inhibition at 1 µmol/L, JNK2
[5] = target: T2, panel of 255 wild-type kinases (Homo sapiens, UniProt Q16566); details: CaMK4 kinase assay; 1 µmol/L single concentration; read-out: %-inhibition CaMK4
T2 sequence (Q16566 1-473): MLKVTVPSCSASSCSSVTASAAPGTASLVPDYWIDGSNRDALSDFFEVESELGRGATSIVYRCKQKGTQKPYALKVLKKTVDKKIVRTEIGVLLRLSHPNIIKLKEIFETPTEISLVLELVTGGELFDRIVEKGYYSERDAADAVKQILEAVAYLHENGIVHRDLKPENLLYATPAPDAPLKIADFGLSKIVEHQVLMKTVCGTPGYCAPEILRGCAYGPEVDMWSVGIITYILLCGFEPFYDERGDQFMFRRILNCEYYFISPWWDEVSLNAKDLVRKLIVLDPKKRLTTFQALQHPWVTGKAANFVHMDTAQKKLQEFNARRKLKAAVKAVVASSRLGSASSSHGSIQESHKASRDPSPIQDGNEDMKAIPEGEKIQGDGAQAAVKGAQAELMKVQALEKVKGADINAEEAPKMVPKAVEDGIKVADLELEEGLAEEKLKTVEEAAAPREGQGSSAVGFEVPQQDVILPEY

[6] = target: T3, panel of 255 wild-type kinases (Homo sapiens, UniProt Q13188); details: MST2; 1 µmol/L single concentration; read-out: %-inhibition, MST2
T3 sequence (Q13188 1-491): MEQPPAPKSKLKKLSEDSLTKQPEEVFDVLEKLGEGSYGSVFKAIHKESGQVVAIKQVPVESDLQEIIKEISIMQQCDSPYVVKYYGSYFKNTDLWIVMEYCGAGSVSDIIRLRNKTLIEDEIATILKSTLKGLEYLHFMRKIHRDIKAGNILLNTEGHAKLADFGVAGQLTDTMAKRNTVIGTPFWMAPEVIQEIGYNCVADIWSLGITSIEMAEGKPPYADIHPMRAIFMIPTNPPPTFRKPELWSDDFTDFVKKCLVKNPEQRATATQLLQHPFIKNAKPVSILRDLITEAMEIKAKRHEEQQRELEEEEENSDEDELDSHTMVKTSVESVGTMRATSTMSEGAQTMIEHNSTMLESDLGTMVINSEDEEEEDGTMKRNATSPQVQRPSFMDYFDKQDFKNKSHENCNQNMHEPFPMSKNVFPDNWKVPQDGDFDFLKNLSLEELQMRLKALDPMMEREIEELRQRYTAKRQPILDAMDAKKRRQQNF

[7] = target: panel of 255 wild-type kinases (Homo sapiens, UniProt Q04912); details: kinase RON; 1 µmol/L single concentration; read-out: %-inhibition at 1 µmol/L, RON
[8] = target: panel of 255 wild-type kinases (Homo sapiens, UniProt P35968); details: kinase KDR; 1 µmol/L single concentration; read-out: %-inhibition at 1 µmol/L, KDR
[9] = target: panel of 255 wild-type kinases (Homo sapiens, UniProt P68400); details: kinase CK2α1/β; 1 µmol/L single concentration; read-out: %-inhibition at 1 µmol/L, CK2α1/β
[10] = target: panel of 255 wild-type kinases (Homo sapiens, UniProt P51957); details: NEK4; 1 µmol/L single concentration; read-out: %-inhibition, NEK4
[11] = target: panel of 255 wild-type kinases (Homo sapiens, UniProt P49840); details: kinase GSK3α; 1 µmol/L single concentration; read-out: %-inhibition at 1 µmol/L, GSK3α
[12] = target: panel of 255 wild-type kinases (Homo sapiens, UniProt Q9Y6M4); details: kinase CK1γ3; 1 µmol/L single concentration; read-out: %-inhibition at 1 µmol/L, CK1γ3
[13] = target: panel of 255 wild-type kinases (Homo sapiens, UniProt Q15208); details: NDR1; 1 µmol/L single concentration; read-out: %-inhibition, NDR1
[14] = target: panel of 255 wild-type kinases (Homo sapiens, UniProt Q15759); details: p38β; 1 µmol/L single concentration; read-out: %-inhibition, p38β
[15] = target: panel of 255 wild-type kinases (Homo sapiens, UniProt Q8IY84); details: NIM1K; 1 µmol/L single concentration; read-out: %-inhibition, NIM1K

Structure (SMILES)	inhibition at 1 µM [1]	%-inhibition at 1 µmol/L, FYN [isoform b] [2]	%-inhibition at 1 µmol/L, LYNb [2]	%-inhibition at 1 µmol/L, PKCβ2 [2]	%-inhibition at 1 µmol/L, SRM [2]	inhibition at 1 µM [3]	inhibition at 1 µM [4]	inhibition at 1 µM [5]	inhibition at 1 µM [6]	inhibition at 1 µM [7]	inhibition at 1 µM [8]	inhibition at 1 µM [9]	inhibition at 1 µM [10]	inhibition at 1 µM [11]	inhibition at 1 µM [12]	inhibition at 1 µM [13]	inhibition at 1 µM [14]	inhibition at 1 µM [15]	number of the 255 profiled kinases inhibited by more than 50% ([2]; 1 µmol/L inhibitor)	inhibition of profiled kinases in biochemical assays ([2]; 1 µmol/L inhibitor)
Cn1cnc2c(F)c(Nc3ccc(Br)cc3F)c(C(=O)NOCCO)cc21 [binimetinib]	0.406%	4%	4.22%	-1.88%	-1.11%	-0.74%	-5.47%	2.67%	-1.64%	-3.72%	15%	-4.22%	-1.67%	-2.8%	2.67%	-1.86%	0.0465%	-2.23%	–	–
Cc1nc(NC(=O)N2CCC[C@H]2C(N)=O)sc1-c1ccnc(C(C)(C)C(F)(F)F)c1 [alpelisib]	0.0286%	-5.63%	4.67%	2.32%	1%	1.47%	0.494%	-7%	1.52%	7%	8%	-1.52%	-3%	-2.64%	-2%	0.245%	1%	-1.81%	–	–
C=CC(=O)N1CCC([C@@H]2CCNc3c(C(N)=O)c(-c4ccc(Oc5ccccc5)cc4)nn32)CC1 [zanubrutinib]	-0.741%	22%	55%	-1.66%	58%	-3.7%	-1.18%	0.733%	1.56%	5%	11%	-2%	1%	-7%	-0.464%	-1.86%	4.54%	-1.66%	–	–
C[C@H]1Oc2cc(cnc2N)-c2c(nn(C)c2C#N)CN(C)C(=O)c2ccc(F)cc21 [lorlatinib]	2.12%	4%	22%	4%	59%	7.56%	3.24%	1.56%	8%	11%	7%	-2%	-0.571%	-2.36%	-1%	3.5%	1.15%	1.32%	–	–
CCN1CCN(c2ccc(Nc3cc(N(C)C(=O)Nc4c(Cl)c(OC)cc(OC)c4Cl)ncn3)cc2)CC1 [infigratinib]	0.613%	43%	84%	1.5%	-2.75%	-3%	2.8%	2.47%	-2.14%	0.707%	92%	-4%	13%	-1.67%	-1.16%	1.4%	-1.57%	-2.7%	–	–

Continued, in another order:

inhibition at 1 µM [1]	%-inhibition at 1 µmol/L, FYN [isoform b] [2]	%-inhibition at 1 µmol/L, LYNb [2]	%-inhibition at 1 µmol/L, PKCβ2 [2]	%-inhibition at 1 µmol/L, SRM [2]	inhibition at 1 µM [3]	inhibition at 1 µM [4]	inhibition at 1 µM [5]	inhibition at 1 µM [6]	inhibition at 1 µM [7]	inhibition at 1 µM [8]	inhibition at 1 µM [9]	inhibition at 1 µM [10]	inhibition at 1 µM [11]	inhibition at 1 µM [12]	inhibition at 1 µM [13]	inhibition at 1 µM [14]	inhibition at 1 µM [15]	number of the 255 profiled kinases inhibited by more than 50% ([2]; 1 µmol/L inhibitor)	Structure (SMILES)	inhibition of profiled kinases in biochemical assays ([2]; 1 µmol/L inhibitor)
0.784%	0.6%	3%	1.61%	4%	1.26%	2%	-3%	4%	8%	11%	-2.47%	-2.34%	-1.9%	-0.689%	0.434%	0.677%	-3.41%	–	C[C@H](Nc1ncnc2nc[nH]c12)c1cc2cccc(Cl)c2c(=O)n1-c1ccccc1 [duvelisib]	did not inhibit FLT3 or any of the other profiled tyrosine or serine/threonine kinases
-2.47%	30%	89%	-1.78%	13%	-0.536%	5%	0.271%	5.55%	2.6%	95%	-2.52%	2.56%	62%	0.449%	7.54%	-3.42%	0.843%	71	CO[C@]1(C(=O)N[C@@H](C)c2ccc(-n3cc(F)cn3)nc2)CC[C@H](c2nc(C)cc(Nc3cc(C)[nH]n3)n2)CC1 [pralsetinib]	–
-3.69%	-1.06%	6%	-1.5%	2.77%	-4%	1.47%	0.435%	-1.17%	2.23%	4.29%	-4%	2.39%	5.54%	11%	-0.331%	-3.42%	1.49%	–	Cc1cc(Nc2ncnc3ccc(NC4=NC(C)(C)CO4)cc23)ccc1Oc1ccn2ncnc2c1 [tucatinib]	–
